Laboratory results published in patent publication US6407081B1, “Method for inhibiting cytokine production by cells” (Previsan AG, priority 1997, dated 2002).

How the values were obtained:
IL-2 = IL-2 production by PHA/PMA-stimulated mononuclear cells, ELISA (Example 7); format: cell-based; details: human mononuclear cells, PHA + PMA, 48 h
Protocol: (§1) 200 ml of blood are taken and heparinised from healthy male and female volunteers. Mononuclear cells are isolated by Ficoll-Hypaque centrifugation and resuspended in a medium consisting of RPMI 1640 complemented by 5% autologous serum, […] of glutamine, […] of penicillin, 10 μg/ml of streptomycin, 10 μg/ml of phytohaemagglutinin (PHA), 10 μg/ml of phorbol myristate acetate (PMA) and test compounds as stated per individual experiment at a cellular density of 2,000,000 per ml. The cells are distributed in 96 well microtitre plates in 250 μl portions per well and incubated for 48 hours at 37° C. The supernatants are then harvested and the IL-2 and IL-5 concentrations quantified by a standard ELISA assay using a biotin/streptavidin system. By way of variant, PHA was replaced with 0.1 μg/ml of monoclonal antibodies directed against human CD3 in order to achieve more specific activation of the T cells.

[1] = medium not stated; cited from earlier work
IL-5 = IL-5 production by PHA/PMA-stimulated mononuclear cells, ELISA (Example 7); format: cell-based; details: human mononuclear cells, PHA + PMA, 48 h
Protocol: as §1

tumour necrosis factor = details: dose of 1 mmol; endotoxin-induced activation of alveolar macrophages; cited from earlier work

SMILES | IL-2 inhibition (%) (IL-2; 10 μM) | IL-2 inhibition (%) (IL-2; 32 μM) | half-life [1] | IL-5 inhibition (%) (IL-5; 10 μM) | IL-5 inhibition (%) (IL-5; 32 μM) | production of tumour necrosis factor (tumour necrosis factor) | inhibition at 10 µM (IL-2; 10 μM) [%] | inhibition at 32 µM (IL-2; 32 μM) [%] | inhibition at 10 µM (IL-5; 10 μM) [%] | inhibition at 32 µM (IL-5; 32 μM) [%]
CN(C)C(=O)N=NC(=O)N(C)C [A, 1,1′-azobisdimethylformamide] | 3 | 28 | only a few minutes | 12 | 29 | insignificant increase | – | – | – | –
O=C(N=NC(=O)N1CCCCC1)N1CCCCC1 [B, 1,1′-(azodicarbonyl)dipiperidine] | – | – | – | – | – | – | 0.2 | 11 | 17 | 39
O=C(N=NC(=O)N1CCOCC1)N1CCOCC1 [C, 1,1′-(azodicarbonyl)dimorpholine] | 6 | 9 | – | 37 | 51 | – | – | – | – | –
